Structures can show the parent of a compound that is named as a salt. Where two headings read alike, the source gives them in different places.
Assays:
Aβ1-40 = Aβ1-40 content in conditioned medium of primary cortico-hippocampal neuron cultures from Tg2576 mice (ELISA; primary and secondary dose-response screening); type: cell-based, mouse; details: for activity at 100 µM: Mus musculus, Neuron, 24 h, read-out: Ab1-40 (% of ctl); for activity at 100 µM / Ab1-40 (% of ctl): drug 100 μM
In short: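 Primary cortico-hippocampal neurons from embryonic Tg2576 mice were plated at 1.0×10^5 cells per well on poly-D-lysine-coated 96-well plates in Neurobasal with 2% B27, 0.5 mM L-glutamine and 1% penicillin-streptomycin. Cultures received drug in 1% DMSO, and Aβ1-40 in the conditioned medium was measured by BioSource ELISA 24 hours after treatment, relative to vehicle controls.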

Aβ1-42 = Aβ1-42 content in conditioned medium of primary cortico-hippocampal neuron cultures from Tg2576 mice (ELISA; primary and secondary dose-response screening); type: cell-based, mouse; details: for activity at 100 µM: Mus musculus, Neuron, 24 h, read-out: Ab1-42 (% of ctl); for activity at 100 µM / Ab1-42 (% of ctl): drug 100 μM; for reducing Aβ1-42: <85% of ctl
In short: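 Primary cortico-hippocampal neurons from embryonic Tg2576 mouse brain were seeded on poly-D-lysine-coated 96-well plates at 1.0×10^5 cells per well in serum-free Neurobasal medium with 2% B27, 0.5 mM L-glutamine and 1% penicillin-streptomycin. For primary screening, duplicate wells received 100 μM drug (1% DMSO final). Vehicle-treated cultures served as controls, and Aβ1-42 in conditioned medium was measured by commercial ELISA.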

[1] = test system: primary cortico-hippocampal neuron cultures; test: MTT in primary screening
[2] = test system: primary cortico-hippocampal neuron cultures; test: lactate dehydrogenase (LDH) activity assay in parallel neuron cultures
Experimental: For in vitro treatments drugs available from “The Spectrum Collection” in stocks of 10 mM in DMSO were applied directly to cultures to the desired concentrations (final 1% DMSO); control primary neuron cultures from Tg2576 embryos were treated with vehicle resulting in a final 1% DMSO.
Cell viability was assessed using a commercial available LDH assay kit according to the manufacture's instruction (Promega).

[3] = Primary Screening, table sorted by Aβ1-40
[4] = primary screening, Tg2576 neuron cultures, table sorted by Aβ1-42
[5] = primary screening, table sorted by Aβ1-42

| Compound | activity at 100 µM (Aβ1-40; [3]) | activity at 100 µM (Aβ1-40; [4]) | reduced Aβ1-40 (Aβ1-40; primary screening, <85% of ctl) | activity at 100 µM (Aβ1-42; [3]) | activity at 100 µM (Aβ1-42; [4]) | MTT (% of ctl) [1, 3] | MTT (% of ctl) [1, 5] | LDH (% of ctl) [2, 3] | LDH (% of ctl) [2, 5] | reducing Aβ1-42 (Aβ1-42; primary screening) | Ab1-40 (% of ctl) (Aβ1-40; [3]) | Ab1-40 (% of ctl) (Aβ1-40; [4]) | Ab1-42 (% of ctl) (Aβ1-42; [3]) | Ab1-42 (% of ctl) (Aβ1-42; [4]) |
| --- | --- | --- | --- | --- | --- | --- | --- | --- | --- | --- | --- | --- | --- | --- |
| CO[C@]12C[C@@H](COC(=O)c3cncc(Br)c3)CN(C)[C@@H]1Cc1cn(C)c3cccc2c13 [Nicergoline] | 76.1% | 76.1% | reduced Aβ1-40 | 98.5% | 98.5% | 99.8 % of ctl | 99.8 % of ctl | 106.2 % of ctl | 106.2 % of ctl | – | – | – | – | – |
| NS(=O)(=O)c1cc2c(cc1C(F)(F)F)NCNS2(=O)=O [Hydroflumethiazide] | 92.4% | 92.4% | – | 90.2% | 90.2% | 98.9 % of ctl | 98.9 % of ctl | 99.7 % of ctl | 99.7 % of ctl | – | – | – | – | – |
| CC(C)NCC(O)c1ccc2ccccc2c1 (stereo not drawn) [Pronetalol Hydrochloride] | 88% | 88% | – | 94.6% | 94.6% | 88.8 % of ctl | 88.8 % of ctl | 108.9 % of ctl | 108.9 % of ctl | – | – | – | – | – |
| CC(C)NCC(O)COc1ccc(CC(N)=O)cc1 (stereo not drawn) [Atenolol] | 90.4% | 90.4% | – | 94.5% | 94.5% | 97.3 % of ctl | 97.3 % of ctl | 136.8 % of ctl | 136.8 % of ctl | – | – | – | – | – |
| NS(=O)(=O)c1cc2c(cc1Cl)NC(C(Cl)Cl)NS2(=O)=O (stereo not drawn) [Trichlormethiazide] | 89.3% | 89.3% | – | 84.5% | 84.5% | 105.5 % of ctl | 105.5 % of ctl | 102.6 % of ctl | 102.6 % of ctl | useful in reducing Aβ1-42 | – | – | – | – |
| CNCCc1ccccn1 [Betahistine Hydrochloride] | 110% | 110% | – | 98.9% | 98.9% | 107.1 % of ctl | 107.1 % of ctl | 107.3 % of ctl | 107.3 % of ctl | – | – | – | – | – |
| CCOC(=O)[C@H](CCc1ccccc1)N[C@@H](C)C(=O)N1Cc2ccccc2C[C@H]1C(=O)O [Quinapril Hydrochloride] | 119% | 119% | – | 118% | 118% | 102.4 % of ctl | 102.4 % of ctl | 101.8 % of ctl | 101.8 % of ctl | – | – | – | – | – |
| COc1ccc(OC)c(C(O)CNC(=O)CN)c1 (stereo not drawn) [Midodrine Hydrochloride] | 86% | 86% | – | 76.7% | 76.7% | 87.8 % of ctl | 87.8 % of ctl | 105.6 % of ctl | 105.6 % of ctl | useful in reducing Aβ1-42 | – | – | – | – |
| CC(C)(C)NCC(O)COc1cccc2c1CC(O)C(O)C2 (stereo not drawn) [Nadolol] | 94.2% | 94.2% | – | 113% | 113% | 102.8 % of ctl | 102.8 % of ctl | 106.5 % of ctl | 106.5 % of ctl | – | – | – | – | – |
| CC(=O)CC(c1ccccc1)c1c(O)c2ccccc2oc1=O (stereo not drawn) [Warfarin] | 89.4% | 89.4% | – | 107% | 107% | 100.1 % of ctl | 100.1 % of ctl | 106.6 % of ctl | 106.6 % of ctl | – | – | – | – | – |
| NS(=O)(=O)c1cc2c(cc1Cl)NCNS2(=O)=O [Hydrochlorothiazide] | 89.5% | 89.5% | – | 116% | 116% | 102.1 % of ctl | 102.1 % of ctl | 281.1 % of ctl | 281.1 % of ctl | – | – | – | – | – |
| CC(CCc1ccc(O)cc1)NCCc1ccc(O)c(O)c1 (stereo not drawn) [Dobutamine Hydrochloride] | 90.1% | 90.1% | – | 103% | 103% | 99.5 % of ctl | 99.5 % of ctl | 103.1 % of ctl | 103.1 % of ctl | – | – | – | – | – |
| COc1ccc2c(c1OC)C(=O)O[C@H]2[C@@H]1c2cc3c(cc2CCN1C)OCO3 [1S,9R-Beta-HYDRASTINE] | – | – | – | – | – | 101.1 % of ctl | 101.1 % of ctl | 114.2 % of ctl | 114.2 % of ctl | – | 114.5 % of ctl | 114.5 % of ctl | 123.6 % of ctl | 123.6 % of ctl |
| O=C(O)c1cccnc1 [Niacin] | 101% | 101% | – | 95% | 95% | 61.0 % of ctl | 61.0 % of ctl | 134.5 % of ctl | 134.5 % of ctl | – | – | – | – | – |
| CCOC(=O)[C@H](CCc1ccccc1)N[C@@H](C)C(=O)N1CCC[C@H]1C(=O)O [Enalapril Maleate] | 101% | 101% | – | 97.6% | 97.6% | 126.4 % of ctl | 126.4 % of ctl | 118.9 % of ctl | 118.9 % of ctl | – | – | – | – | – |
| CC[C@H]1CN2CC[C@H]1C[C@@H]2[C@@H](O)c1ccnc2ccc(OC)cc12 [Hydroquinidine] | 96.5% | 96.5% | – | 121% | 121% | 103.6 % of ctl | 103.6 % of ctl | 102.2 % of ctl | 102.2 % of ctl | – | – | – | – | – |
| Phenylbutyrate Sodium | – | – | – | – | – | 70.2 % of ctl | 70.2 % of ctl | 192.3 % of ctl | 192.3 % of ctl | – | 102.1 % of ctl | 102.1 % of ctl | 86.6 % of ctl | 86.6 % of ctl |
| CC(C)NCC(O)COc1cccc2[nH]ccc12 (stereo not drawn) [Pindolol] | 99% | 99% | – | 46.1% | 46.1% | 98.9 % of ctl | 98.9 % of ctl | 171.7 % of ctl | 171.7 % of ctl | useful in reducing Aβ1-42 | – | – | – | – |
| CC[C@]12CCCN3CCc4c(n(c5ccccc45)[C@@](O)(C(=O)OC)C1)[C@@H]32 [Vincamine] | 99.1% | 99.1% | – | 104% | 104% | 98.5 % of ctl | 98.5 % of ctl | 96.4 % of ctl | 96.4 % of ctl | – | – | – | – | – |
